Drawing on patent publication US9814739B2, “2′-ethynyl nucleoside derivatives for treatment of viral infections” (priority 2012, dated 2017), this text covers EC50, CC50 and IC50 for 14 compounds.

Data set [1] has as its system GT1b HCV luciferase replicon. Put plainly: HCV replicon antiviral EC50 assay. The class given is cell-based, Hepatitis C virus. The note with it: for pEC50: read-out: HCV GT1b EC50; for EC50: Hepatitis C virus, GT1B, 72 h, read-out: HCV GT1b EC50 (uM). Background: A replicon is a self-replicating genome or part of one, used to study replication in cells.
For data set [2], the system named is Replicon cells, expressing the GT1b HCV luciferase replicon.
A further data set is described as follows: in vitro. The note with it: HCV GT1b CC50 (uM).
The next data set relates to Dengue virus. Put plainly: Dengue assay on cryopreserved PBMC cells (plaque reduction readout on BHK cells). The class given is cell-based. The settings on record: human PBMC cells. The method, then:
Cryopreserved human PBMC cells were purchased from approved vendors. It was then thawed according to manufacturer's instructions and suspended in RPMI medium supplemented with 1% penicillin/streptomycin solution and 10% Fetal Calf serum. The cells were then counted and viability checked (viability should be at least 70%). After centrifuging and removing the media, the cells were diluted to 1×10^7 cells/mL in RPMI medium supplemented with 1% penicillin/streptomycin. 50 μl of the cells were then dispensed into 96-well tissue culture plate constituting 5×10^5 cells/well. Next, virus with humanized 4G2 mixture was prepared for infection. Briefly, virus (2×10^7 pfu/ml) was mixed with humanized 4G2 antibody with the final antibody concentration of 0.38 μg/ml and incubated for 30 minutes at 4° C. to assist virus/antibody complex formation. The virus-antibody complex was then added to the PBMC at multiplicity of infection (M.O.I) of 0.5. The resulting media was then and further incubated the plates at 37° C. in the humidified incubator for infection to take place. Serial diluted compounds were then added and finally media was added such that the final media volume was 200 μl with 2% Fetal Calf Serum. The plates were then incubated at 37° C., 5% CO2 for another 48 hours. The extent of the infection and compound inhibition was measured by plaque reduction assay using BHK cells. Briefly, BHK cells grown in 24-well tissue culture were subjected to supernatants derived from infection containing serial diluted compounds. After additional 4 days, the monolayer of BHK cells were fixed, stained with crystal violet stain and plaques counted. Dose response curves were plotted from the mean absorbance (n=3) versus the log of the concentration of test compounds. The EC50 is calculated by nonlinear regression analysis. A positive control (7-deaza-2′-C-acetylene-adenosine) was used to ensure the quality of the data.

Data set [3] is described as follows: 4 day CCK-8 cytotoxicity assay using THP-1 cells. The note with it: human, read-out: Dengue CC50 (THP-1). Type of data set: cell-based. The method, then: 3) Protocols for Automated 4 Days CCK8 (Dojindo) Cytotoxicity Assay in HepG2 and THP-1 Cells • 1. 25 μL of HepG2 suspension containing 1.6×10^4 cells/ml (400 cells/well) or 25 μL of THP-1 suspension containing 8×10^4 cells/ml (2000 cells/well) was dispensed into a clear 384-well plate by GNF dispenser 2B vertical-head. • 2. The plate was pre-incubated for 24 h in the GNF incubator (humidified, 37° C., 5% CO2). • 3. Serial-diluted compound were directly transferred into the culture media in the plate (200× dilution). • 4. Plates were incubated for 96 hours in the GNF incubator. • 5. CCK-8 was thawed on the bench-top, and was pre-diluted with media (2.5× dilutions). • 6. 35 μL of 2.5× diluted CCK8 was added to each well of the plate by GNF dispenser 1C angled-head. • 7. The plates were incubated for 3 hours in the incubator. • 8. The absorbance at 450 nm was measured by Envision. Dengue Assay on Cryopreserved PBMC Cells
THP-1 cells grown in suspension were counted and diluted to 8×10^4 cells/ml in RPMI-1640 media supplemented with 10% fetal bovine serum and 1% penicillin/streptomycin. 25 ul of the THP-1 containing media consisting of 2000 cells were dispensed in 384-well tissue culture plate and pre-incubated at room temperature for 30 minutes, followed by 37° C., 5% CO2 overnight in the humidified incubator. On the next day, serial-diluted compound plates were prepared and 125 nl of compounds at various concentrations were then dispensed into the tissue culture well (200× dilution). The plates were then transferred to 37° C., 5% CO2 humidified incubator for additional 96 hours. Cytotoxicity was measured by CCK-8 assay. Briefly, CCK-8 was thawed on bench top and diluted 2.5× with the growth media. 35 ul of the pre-diluted CCK-8 was then introduced into each well and the plates were then further incubated in 37° C., 5% CO2 humidified incubator for 3 hours. The absorbance was read by Envision at 450 nm. Dose response curves were plotted from the mean absorbance (n=2) versus the log of the concentration of test compounds. The EC50 is calculated by nonlinear regression analysis. A positive control (puromycin) was used to ensure the quality of the data.
(Formazan colour is commonly taken as a measure of viable cells.)

In a further data set the target is HCV polymerase (Hepatitis C virus genotype 1b, UniProt Q9WMX2). Nature of the data set: biochemical.
The target of data set [4] is T1, Dengue polymerase (Dengue virus type 2, UniProt P29990). Put plainly: biochemical. The settings on record: Elongation.
Data set [5] concerns the target T1, Dengue polymerase. Put plainly: biochemical. The settings on record: De novo.

pEC50, pIC50: −log10 of the molar value. Read-outs that look alike come from different tables or passages of the source.

By pEC50 is commonly meant the negative decadic logarithm of the EC50, by convention in mol/L. The EC50 is the concentration at which the effect is half-maximal. As usually defined, the pIC50 is the IC50 on a negative log10 scale, so that one unit is a factor of ten.

T1 sequence (P29990 2492-3391 limits assumed): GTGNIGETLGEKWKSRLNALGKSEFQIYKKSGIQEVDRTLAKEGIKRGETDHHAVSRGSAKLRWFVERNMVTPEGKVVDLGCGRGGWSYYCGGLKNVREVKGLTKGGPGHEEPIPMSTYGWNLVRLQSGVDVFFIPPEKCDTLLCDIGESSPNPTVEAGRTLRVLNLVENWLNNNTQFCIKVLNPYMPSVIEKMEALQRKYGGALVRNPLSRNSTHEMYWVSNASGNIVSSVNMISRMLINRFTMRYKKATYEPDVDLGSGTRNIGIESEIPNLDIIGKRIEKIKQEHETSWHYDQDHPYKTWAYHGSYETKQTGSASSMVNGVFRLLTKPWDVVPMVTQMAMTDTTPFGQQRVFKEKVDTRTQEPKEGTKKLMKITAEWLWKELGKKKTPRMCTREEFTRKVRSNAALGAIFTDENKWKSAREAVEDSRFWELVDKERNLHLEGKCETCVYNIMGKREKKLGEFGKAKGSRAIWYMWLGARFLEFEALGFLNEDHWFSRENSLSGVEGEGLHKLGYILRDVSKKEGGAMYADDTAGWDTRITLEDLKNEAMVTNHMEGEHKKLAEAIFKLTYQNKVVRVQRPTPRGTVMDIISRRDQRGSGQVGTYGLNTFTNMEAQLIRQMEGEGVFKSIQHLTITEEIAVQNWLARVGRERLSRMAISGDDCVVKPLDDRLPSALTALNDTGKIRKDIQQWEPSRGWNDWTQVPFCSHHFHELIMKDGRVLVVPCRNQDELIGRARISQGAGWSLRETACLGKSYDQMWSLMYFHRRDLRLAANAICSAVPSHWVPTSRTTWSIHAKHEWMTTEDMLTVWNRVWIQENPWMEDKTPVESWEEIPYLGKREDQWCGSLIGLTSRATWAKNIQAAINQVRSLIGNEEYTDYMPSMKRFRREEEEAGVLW
HCV polymerase, sequence (Q9WMX2 2420-3010 limits assumed): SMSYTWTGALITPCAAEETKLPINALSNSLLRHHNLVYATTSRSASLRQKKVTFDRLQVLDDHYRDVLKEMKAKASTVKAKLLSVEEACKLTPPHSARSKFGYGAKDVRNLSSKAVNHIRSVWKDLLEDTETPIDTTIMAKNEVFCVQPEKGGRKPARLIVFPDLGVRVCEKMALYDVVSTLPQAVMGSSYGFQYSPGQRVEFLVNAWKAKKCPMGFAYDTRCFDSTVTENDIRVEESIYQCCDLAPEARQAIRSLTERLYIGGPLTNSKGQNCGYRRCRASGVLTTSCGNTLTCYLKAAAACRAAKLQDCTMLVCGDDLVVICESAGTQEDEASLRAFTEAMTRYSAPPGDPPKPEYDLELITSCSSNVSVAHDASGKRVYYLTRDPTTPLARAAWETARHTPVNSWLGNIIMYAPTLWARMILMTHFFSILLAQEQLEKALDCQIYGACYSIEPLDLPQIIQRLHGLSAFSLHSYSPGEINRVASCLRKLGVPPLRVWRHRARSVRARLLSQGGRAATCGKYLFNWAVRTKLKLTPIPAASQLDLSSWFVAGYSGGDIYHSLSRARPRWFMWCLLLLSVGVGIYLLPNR

`C#C[C@@]1(O)[C@H](O)[C@@H](COP(=O)(N[C@@H](C)C(=O)OC)Oc2ccccc2)O[C@H]1n1ccc(=O)[nH]c1=O` (single isomer, unassigned) [1.35 (peak 1)]: in data set [1], the pEC50 was 6.53. The CC50 in data set [2] was more than 25000 nM.
For the compound `C#C[C@@]1(O)[C@H](O)[C@@H](COP(=O)(N[C@@H](C)C(=O)OCC)Oc2ccccc2)O[C@H]1n1ccc(=O)[nH]c1=O` (single isomer, unassigned) [1.36 (peak 1)], the pEC50 in data set [1] was 6.99. This compound also yielded a CC50 in data set [2] of more than 25000 nM.
For the compound `C#C[C@@]1(O)[C@H](O)[C@@H](COP(=O)(NC(C)(C)C(=O)OCC)Oc2ccccc2)O[C@H]1n1ccc(=O)[nH]c1=O` (single isomer, unassigned) [1.37 (peak 1)], in data set [1], the pEC50 was 6.44. The same compound came in with a CC50 in data set [2] of more than 25000 nM.
For the compound `C#C[C@@]1(O)[C@H](O)[C@@H](COP(=O)(N[C@@H](CC)C(=O)OC(C)C)Oc2ccccc2)O[C@H]1n1ccc(=O)[nH]c1=O` (single isomer, unassigned) [1.38 (peak 1)], the pEC50 in data set [1] is 6.43. In data set [2], this compound yielded a CC50 of more than 25000 nM.
For `C#C[C@@]1(O)[C@H](O)[C@@H](COP(=O)(NC(C)(C)C(=O)OC(C)C)Oc2ccccc2)O[C@H]1n1ccc(=O)[nH]c1=O` (single isomer, unassigned) [1.39 (peak 1)] the same measures were 5.82 and more than 25000 nM.
In the case of `C#C[C@@]1(O)[C@H](O)[C@@H](CO[P@@](=O)(N[C@@H](C)C(=O)OC(C)C)Oc2ccccc2)O[C@H]1n1ccc(=O)[nH]c1=O` (single isomer, unassigned) [Example 1], the CC50 was more than 25 µM in the data set “in vitro” and more than 20000 nM in data set [2]. For the same compound, the pEC50 with Dengue virus (Dengue virus, PBMC, 48 h) is 6.40; with Dengue virus (48 hours), 6.64; in data set [1], 7.01. The CC50 at 96 h in data set [3] was more than 50000 nM. In addition, the EC50 in data set [1] worked out at 0.066 µM.
For the compound `CC#C[C@@]1(O)[C@H](O)[C@@H](COP(=O)(N[C@@H](C)C(=O)OC(C)C)Oc2ccccc2)O[C@H]1n1ccc(=O)[nH]c1=O` (stereo partly drawn) [Example 1.1, (2S)-isopropyl 2-(((((2R,3R,4R,5R)-5-(2,4-dioxo-3,4-dihydropyrimidin-1(2H)-yl)-3,4-dihydroxy-4-(prop-1-yn-1-yl)tetrahydrofuran-2-yl)methoxy)(phenoxy)phosphoryl)amino)propanoate], the CC50 in “in vitro” was more than 25 µM. Moreover, the pEC50 in the data set with Dengue virus (Dengue virus, PBMC, 48 h) was 6.01. The CC50 at 96 h in data set [3] came out at 48000 nM. Further, the EC50 in data set [1] was 0.243 µM.
`C#C[C@@]1(O)[C@H](O)[C@@H](COP(=O)(N[C@@H](C)C(=O)O[C@H](C)CC)Oc2ccc(Cl)cc2)O[C@H]1n1ccc(=O)[nH]c1=O` (stereo partly drawn) [Example 1.3, (2S)-(R)-sec-butyl 2-(((4-chlorophenoxy)(((2R,3R,4R,5R)-5-(2,4-dioxo-3,4-dihydropyrimidin-1(2H)-yl)-4-ethynyl-3,4-dihydroxytetrahydrofuran-2-yl)methoxy)phosphoryl)amino)propanoate] displayed a CC50 in the data set “in vitro” of more than 25 µM. This compound also had a pEC50 in the data set on Dengue virus (Dengue virus, PBMC, 48 h) of 7.22. In addition, in data set [3], the CC50 at 96 h was 16000 nM. The EC50 in data set [1] is 0.095 µM.
In the data set “in vitro”, `C#C[C@@]1(O)[C@H](O)[C@@H](COP(=O)(N[C@@H](C)C(=O)OC(CC)CC)Oc2ccc(Cl)cc2)O[C@H]1n1ccc(=O)[nH]c1=O` (stereo partly drawn) [Example 1.4, (2S)-pentan-3-yl 2-(((4-chlorophenoxy)(((2R,3R,4R,5R)-5-(2,4-dioxo-3,4-dihydropyrimidin-1(2H)-yl)-4-ethynyl-3,4-dihydroxytetrahydrofuran-2-yl)methoxy)phosphoryl)amino)propanoate] displayed a CC50 of more than 25 µM. In the data set with Dengue virus (Dengue virus, PBMC, 48 h), this compound gave a pEC50 of 7.22. For the same compound, the CC50 at 96 h in data set [3] is more than 50000 nM. Moreover, the EC50 in data set [1] was 0.087 µM.
Turning to `C#C[C@@]1(O)[C@H](O)[C@@H](COP(=O)(N[C@@H](C)C(=O)OCc2ccccc2)Oc2ccc(Cl)cc2)O[C@H]1n1ccc(=O)[nH]c1=O` (stereo partly drawn) [Example 1.5, (2S)-benzyl 2-(((4-chlorophenoxy)(((2R,3R,4R,5R)-5-(2,4-dioxo-3,4-dihydropyrimidin-1(2H)-yl)-4-ethynyl-3,4-dihydroxytetrahydrofuran-2-yl)methoxy)phosphoryl)amino)propanoate], the CC50 in the data set “in vitro” was more than 25 µM. Besides, the pEC50 in the data set with Dengue virus (Dengue virus, PBMC, 48 h) was 7.22. In data set [3], the CC50 at 96 h came to 8300 nM. In addition, the EC50 in data set [1] was 0.131 µM.
In turn, `C#C[C@@]1(O)[C@H](O)[C@@H](COP(=O)(NCC(=O)OC(C)C)Oc2ccc(Cl)cc2)O[C@H]1n1ccc(=O)[nH]c1=O` (stereo partly drawn) [Example 1.6, isopropyl 2-(((4-chlorophenoxy)(((2R,3R,4R,5R)-5-(2,4-dioxo-3,4-dihydropyrimidin-1(2H)-yl)-4-ethynyl-3,4-dihydroxytetrahydrofuran-2-yl)methoxy)phosphoryl)amino)acetate] had a CC50 in “in vitro” of more than 25 µM. Also, the pEC50 in the data set on Dengue virus (Dengue virus, PBMC, 48 h) is 6.77. For the same compound, in data set [3], the CC50 at 96 h is more than 50000 nM. In data set [1], the EC50 was determined as 0.152 µM.
As for `C#C[C@@]1(O)[C@H](O)[C@@H](COP(=O)(N[C@@H](C)C(=O)OC2CCCCC2)Oc2ccc(Cl)cc2)O[C@H]1n1ccc(=O)[nH]c1=O` (stereo partly drawn) [Example 1.7, (2S)-cyclohexyl 2-(((4-chlorophenoxy)(((2R,3R,4R,5R)-5-(2,4-dioxo-3,4-dihydropyrimidin-1(2H)-yl)-4-ethynyl-3,4-dihydroxytetrahydrofuran-2-yl)methoxy)phosphoryl)amino)propanoate], the CC50 in the data set “in vitro” was more than 25 µM. This compound also showed a pEC50 in the data set with Dengue virus (Dengue virus, PBMC, 48 h) of 6.77. Also, the CC50 at 96 h in data set [3] is 13000 nM. Moreover, in data set [1], the EC50 worked out at 0.087 µM.
As for `C#C[C@@]1(O)[C@H](O)[C@@H](COP(=O)(O)OP(=O)(O)OP(=O)(O)O)O[C@H]1n1ccc(=O)[nH]c1=O` [Example 1.8, ((2R,3R,4R,5R)-5-(2,4-dioxo-3,4-dihydropyrimidin-1(2H)-yl)-4-ethynyl-3,4-dihydroxytetrahydrofuran-2-yl)methyl tetrahydrogen triphosphate], the negative logarithm of the IC50 (pIC50) at HCV polymerase was 5.08; on Dengue polymerase [4] it was 5.92; at Dengue polymerase [5] it was 5.54.
Consider `CC#C[C@@]1(O)[C@H](O)[C@@H](COP(=O)(O)OP(=O)(O)OP(=O)(O)O)O[C@H]1n1ccc(=O)[nH]c1=O` [Example 1.9, ((2R,3R,4R,5R)-5-(2,4-dioxo-3,4-dihydropyrimidin-1(2H)-yl)-3,4-dihydroxy-4-(prop-1-yn-1-yl)tetrahydrofuran-2-yl)methyl tetrahydrogen triphosphate], for which the pIC50 at Dengue polymerase [4] is 5.68; on Dengue polymerase [5], 5.47.
